The values below come from article PMC3898987 (Bioorganic & Medicinal Chemistry, 2013).

The target in one assay is T1, 5-HT3A receptor D165K (Homo sapiens, UniProt P46098, D160K).
T1 sequence (P46098 24-478 D160K): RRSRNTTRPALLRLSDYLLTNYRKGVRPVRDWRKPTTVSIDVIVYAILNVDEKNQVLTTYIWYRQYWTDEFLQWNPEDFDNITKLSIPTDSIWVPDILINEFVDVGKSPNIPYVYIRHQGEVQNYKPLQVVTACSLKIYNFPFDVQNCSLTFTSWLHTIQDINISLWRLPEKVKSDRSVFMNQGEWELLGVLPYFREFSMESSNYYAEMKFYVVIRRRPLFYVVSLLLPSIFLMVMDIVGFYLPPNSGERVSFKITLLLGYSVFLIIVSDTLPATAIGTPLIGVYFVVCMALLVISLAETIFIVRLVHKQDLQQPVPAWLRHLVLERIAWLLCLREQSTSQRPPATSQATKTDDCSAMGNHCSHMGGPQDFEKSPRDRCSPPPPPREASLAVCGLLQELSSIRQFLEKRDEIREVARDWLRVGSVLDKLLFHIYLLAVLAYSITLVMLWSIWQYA
Put plainly: FlexStation membrane potential dye functional assay, HEK293 cells. It is filed as cell-based. On the set-up: expressed in transfected cells; host or cells: HEK293. The note with it: 5-HT3A D165K.

Another assay addresses T2, WT 5-HT3AB receptor (Homo sapiens, UniProt O95264+P46098).
T2 sequence (P46098 24-478): T1 sequence (P46098 24-478 D160K) with K137D
T2 sequence (O95264 22-441): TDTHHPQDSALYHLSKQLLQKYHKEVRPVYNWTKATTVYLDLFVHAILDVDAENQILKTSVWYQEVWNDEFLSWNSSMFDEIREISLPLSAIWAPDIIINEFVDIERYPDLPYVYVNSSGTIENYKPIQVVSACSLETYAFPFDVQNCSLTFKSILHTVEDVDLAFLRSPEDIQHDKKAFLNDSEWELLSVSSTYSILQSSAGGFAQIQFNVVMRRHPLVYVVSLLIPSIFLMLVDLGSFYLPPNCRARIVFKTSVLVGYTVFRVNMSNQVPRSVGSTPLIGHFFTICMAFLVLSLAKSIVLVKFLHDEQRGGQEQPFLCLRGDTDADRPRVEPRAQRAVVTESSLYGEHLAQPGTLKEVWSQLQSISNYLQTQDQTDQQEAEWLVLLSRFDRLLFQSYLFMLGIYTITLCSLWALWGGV
Described as above. It is filed as cell-based. On the set-up: expressed in transfected cells; host or cells: HEK293.

Assay [1] addresses T3, 5-HT3AB receptor, 5-HT3B subunit F130A (Homo sapiens, UniProt O95264+P46098, F123A).
T3 sequence (P46098 24-478): T1 sequence (P46098 24-478 D160K) with K137D
T3 sequence (O95264 22-441 F123A): T2 sequence (O95264 22-441) with F102A
As to the kind of experiment: cell-based.
Experimental: (§1) Human embryonic kidney (HEK) 293 cells were cultured on 90 mm tissue culture plates at 37 °C and 7% CO2 in a humidified atmosphere. They were grown in DMEM:F12 (Dulbecco’s Modified Eagle’s Medium/Nutrient Mix F12 (1:1)) with GlutaMAX I™ containing 10% fetal calf serum and passaged when confluent. […] For FlexStation assays, transfected cells were plated on 96-well plates and incubated 1–2 days before assay.
(§2) Fluorometric studies were undertaken using a FlexStation® (Molecular Devices, Sunnyvale, CA, USA) as previously described.[11]
(§3) Fluorescence was measured every 2 s for 200 s. […] Concentration–response and inhibition curves were obtained for each mutant, and the fluorescence values were normalized to the maximal response.

For the next assay, the target named is T4, 5-HT3A receptor S163A (Homo sapiens, UniProt P46098, S158A).
T4 sequence (P46098 24-478 S158A): T1 sequence (P46098 24-478 D160K) with S135A, K137D
As to the kind of experiment: radioligand saturation binding, transfected HEK293 membranes. The note with it: [3H]-palonosetron saturation, 5-HT3A S163A, 4 °C, 24 h.

Where [2] appears, read: inhibition of 5-HT (EC50 concentration) response, 45 min preincubation.

Molecules are shown by their SMILES. Where a chain is given by its changes, count along the chain named. Several values for one entry are separate records, joined by “and”; a condition that tells them apart may be missing. Equal values may be shown once.

Experimental for 5-HT3A receptor D165K: as §1, §2, §3
Experimental for 5-HT3A receptor S163A: Human embryonic kidney (HEK) 293 cells were cultured on 90 mm tissue culture plates at 37 °C and 7% CO2 in a humidified atmosphere. They were grown in DMEM:F12 (Dulbecco’s Modified Eagle’s Medium/Nutrient Mix F12 (1:1)) with GlutaMAX I™ containing 10% fetal calf serum and passaged when confluent. For radioligand binding studies, cells in 90 mm dishes were transfected at 60–70% confluency using polyethyleneimine and incubated for 3–4 days before use. For FlexStation assays, transfected cells were plated on 96-well plates and incubated 1–2 days before assay. […]
Eight-point binding assays were performed to produce saturation binding curves. […] Radioactive counts were measured using a Beckman LS6000SC liquid scintillation counter (Fullerton, California, USA).
Data were analyzed by iterative curve fitting using GraphPad Prism v5 (San Diego, CA) according to the following equation: B=Bmax[L]^n/kdn+[L]^n where B is the amount of bound radioligand, Bmax is the maximum specific binding at equilibrium, [L] is the concentration of radioligand, Kd is the equilibrium dissociation constant of the radioligand, and n is the Hill coefficient.
Experimental for WT 5-HT3AB receptor: as §1, §2, §3

With `NCCc1c[nH]c2ccc(O)cc12` [5-HT, serotonin], the “Hill Coefficient” value at 5-HT3A receptor D165K (5-HT concentration-response) is 3.0 ± 0.3; at WT 5-HT3AB receptor (5-HT concentration-response), 1.3 and 1.3 ± 0.2.

By IC50 is commonly meant the concentration that gives 50% inhibition. High values mean weaker potency, low ones greater potency. The Kd is a measure of binding affinity in units of concentration. Regarding `O=C1c2cccc3c2[C@H](CCC3)CN1[C@@H]1CN2CCC1CC2` [Palonosetron], the half-inhibitory concentration (IC50) in assay [1] is 840 ± 110 pM; against 5-HT3A receptor D165K (setting [2]) it was 1300 ± 430 pM; against WT 5-HT3AB receptor (setting [2]), 880 ± 150 pM. The Kd on 5-HT3A receptor S163A was found to be 300 ± 80 pM.
